Source: ChEMBL document CHEMBL4118085, “Plasma Kallikrein Inhibitors for the Treatment of Retinal Vascular Permeability Associated with Diabetic Retinopathy and Diabetic Macular Edema” (ACS Med Chem Lett, 2017)

Target: Plasma kallikrein (Homo sapiens, UniProt P03952)
Test: Inhibition of human plasma kallikrein using H-Pro-Phe-Arg-AMC as substrate after 1 hr by fluorescence assay

Chain of Plasma kallikrein (P03952 20-390 limits assumed): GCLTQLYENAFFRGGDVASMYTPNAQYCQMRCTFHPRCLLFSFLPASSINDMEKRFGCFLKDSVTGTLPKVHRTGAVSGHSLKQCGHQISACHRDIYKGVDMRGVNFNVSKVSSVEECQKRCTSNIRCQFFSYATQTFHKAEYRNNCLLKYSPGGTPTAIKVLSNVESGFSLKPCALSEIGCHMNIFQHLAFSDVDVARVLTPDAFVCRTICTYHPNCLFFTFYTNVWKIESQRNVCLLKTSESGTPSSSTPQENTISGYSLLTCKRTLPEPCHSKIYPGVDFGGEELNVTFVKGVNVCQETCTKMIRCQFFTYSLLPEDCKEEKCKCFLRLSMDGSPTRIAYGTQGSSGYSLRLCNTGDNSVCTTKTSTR
Chain of Plasma kallikrein (P03952 391-638 limits assumed): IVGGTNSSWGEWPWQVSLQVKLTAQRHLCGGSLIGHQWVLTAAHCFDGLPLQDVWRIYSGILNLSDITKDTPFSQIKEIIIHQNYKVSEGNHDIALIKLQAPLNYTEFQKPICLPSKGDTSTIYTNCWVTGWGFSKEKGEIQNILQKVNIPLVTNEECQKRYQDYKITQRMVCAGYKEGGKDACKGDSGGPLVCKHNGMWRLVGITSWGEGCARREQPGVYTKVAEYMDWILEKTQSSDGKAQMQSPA

Compound | IC50 [nM]
C[C@H]1CCN(c2ccc(Cn3cc(C(=O)N[C@@H]4CCc5nc(N)ccc54)cn3)cn2)C1 | 19
Cc1cnn(Cc2ccc(Cn3nc(C(=O)N[C@@H]4CCc5c4ccnc5N)cc3C(F)(F)F)cc2)c1 | 1

Next, values leading:

IC50 [nM] | Compound
4 | Cc1cc(N)nc2c1C(NC(=O)c1cnn(Cc3ccc(Cn4ccccc4=O)cc3)c1)CC2 (stereo not given)
1900 | Cc1ccc2cc(Cn3cc(C(=O)N[C@H]4CCc5nc(N)ccc54)nn3)ccc2n1
9 | Nc1ccc2c(n1)CCC2NC(=O)c1cnn(Cc2ccc(Cn3ccccc3=O)cc2)c1 (stereo not given)
